Here are results for two molecules from patent US11617715B2, “Methods and compositions for modifying the behavior of animals” (Texas Tech University System, priority 2016, dated 2023).

The test system of the test is dog barking and jumping. Nature of the test: Teaser dog kennel test of dog barking and jumping. It is filed as in vivo. Conditions: kennel dogs with teaser dog; for effectiveness in reducing barking and jumping (Quinoline compared to Androstenone): Study 3. The procedure: The efficacy of Quinoline was tested in three studies conducted to determine if Quinoline would reduce dog barking and jumping. The composition used in the experiments comprised approximately 4 micrograms per milliliter of Quinoline.
The basic parameters of the test involved walking a teaser dog in the center aisle of a dog kennel with test dogs on either side in kennels. The kennels were chain-linked fence with concrete floors. The researchers walked a teaser dog down the aisle and recorded dogs jumping and barking over a two minute period.
In the first study, three treatments were evaluated. Treatment 1 represented no treatment of any kind. The teaser animal simply stood at the test subjects' kennel.
Treatment 2 represented a control treatment. In this case, the delivery vehicle (isopropyl alcohol) spray was administered without Quinoline.
In treatment 3, Quinoline was administered to the test subject animals.
In study 2, the efficacy of Quinoline alone was tested. Test 2 was conducted a week after test 1. The same procedure was used in study 2 except that the test animals were only subject to the delivery of Quinoline.
In study 3, Quinoline was compared to Androstenone (the compound described in U.S. Pat. No. 9,044,395). Again, the same procedures were used in study 3; the test animals were subject to Quinoline and Androstenone.

Where [1] appears, read: Study 1, treatment 3, Quinoline approximately 4 micrograms per milliliter, spray.
Setting [2] is: Study 2, Quinoline alone, a week after study 1.

With `C[C@]12CCC(=O)C[C@@H]1CC[C@@H]1[C@@H]2CC[C@]2(C)C=CC[C@@H]12` [Androstenone, reference compound], the “effectiveness in reducing barking and jumping (Quinoline compared to Androstenone)” value is recorded as “approximately equivalently effective”.
With `c1ccc2ncccc2c1` [Quinoline], the “effectiveness in reducing barking and jumping (Quinoline compared to Androstenone)” value was “approximately equivalently effective”. For the same molecule, under setting [1], the reduced barking was determined as 80% and the reduced jumping was 90%. Under setting [2], this molecule displayed a reduced barking of 100% and a reduced jumping of 90%.
